{"source": "paper doi:10.1101/2023.04.05.535784v2", "about": "(bioRxiv, 2023)", "key": {"[1]": {"test_system": "thrombus formation in the lung", "settings": "mice, oral, three consecutive days"}, "[2]": {"test_system": "THP-1 cells", "settings": "cited from earlier work"}}, "note": "Positions of bridges follow the written chain, without caps; N, C: chain ends. Residues, ends and D or L forms follow the SMILES beside them."}
{"smiles": "CC(C)C[C@@H]1NC(=O)[C@@H]2CSSC[C@@H]3NC(=O)[C@H](Cc4c[nH]c5ccccc45)NC(=O)[C@H](C)NC(=O)CNC(=O)CNC(=O)[C@H](CO)NC(=O)[C@H](CCCCN)NC(=O)[C@@H](N)CSSC[C@@H]4NC(=O)[C@H](CSSC[C@H](NC(=O)[C@H](Cc5ccccc5)NC(=O)CNC(=O)[C@H](C(C)C)NC1=O)C(=O)N[C@@H](Cc1ccc(O)cc1)C(=O)NCC(=O)N[C@@H]([C@@H](C)O)C(=O)NCC(=O)N[C@H](C(=O)O)CSSC[C@H](NC(=O)[C@H](CC(N)=O)NC(=O)CNC4=O)C(=O)NCC(=O)N2)NC(=O)CNC(=O)[C@H](Cc1c[nH]cn1)NC(=O)[C@@H]1CCCN1C(=O)[C@H](CC(=O)O)NC(=O)[C@H](Cc1ccccc1)NC(=O)CNC3=O", "note": "[ginsentide TP1] (H-CKSGGAWCGFDPHGCCGNCGCLVGFCYGTGC-OH; disulfide 1-16, 8-21, 15-26, 19-31)", "values": [{"measurement": "thrombus formation in the lung compared to control, 30 mg/kg", "setting": "[1]", "value": "significantly reduced"}, {"measurement": "increase in IL-6, IL-8, IL-10, and TNFα", "setting": "[2]", "value": "no observable increase"}]}
